From US6495528B1 (SmithKline Beecham Corporation, priority 1998, dated 2002)

How the values were obtained:
Assay type in all cases: cell-based
[1] = target: T1, human adenosine 2a receptor (Homo sapiens, UniProt P29274); assay: Agonist activity at adenosine 2a receptor, CHO cells with CRE-SPAP reporter (basal cAMP); conditions: CHO cells transfected with human A2a receptor; effect on basal cAMP via SPAP; ratio to NECA; minimum values (about 20% inactive impurity)
T1 construct: expressed in transfected cells; host or cells: Chinese hamster ovary (CHO) cells, also transfected with a CRE-SPAP reporter
Method: (§1) (1) Agonist activity against adenosine 2a, adenosine 1 and adenosine 3 receptor subtypes.
(§2) Agonist selectivity of compounds against other human adenosine receptors is determined using Chinese hamster ovary (CHO) cells transfected with the gene for the relevant human adenosine receptor following a method based on that of Castanon and Spevak, 1994. The CHO cells are also transfected with cyclic AMP response elements promoting the gene for secreted placental alkaline phosphatase (SPAP) (Wood, 1995). The effect of test compounds is determined by their effects on basal levels of cAMP (A2a ) or on forskolin-enhanced cAMP (A1 and A3) as reflected by changes in levels of SPAP. EC50 values for compounds are then determined as a ratio to that of the non-selective agonist N-ethyl carboxamide adenosine (NECA).

[2] = target: T2, human adenosine 1 receptor (Homo sapiens, UniProt P30542); assay: Agonist activity at adenosine 1 receptor, CHO cells with CRE-SPAP reporter (forskolin-enhanced cAMP); conditions: CHO cells transfected with human A1 receptor; effect on forskolin-enhanced cAMP via SPAP; ratio to NECA; minimum values (about 20% inactive impurity)
T2 construct: expressed in transfected cells; host or cells: Chinese hamster ovary (CHO) cells, also transfected with a CRE-SPAP reporter
T2 sequence (P30542 1-326): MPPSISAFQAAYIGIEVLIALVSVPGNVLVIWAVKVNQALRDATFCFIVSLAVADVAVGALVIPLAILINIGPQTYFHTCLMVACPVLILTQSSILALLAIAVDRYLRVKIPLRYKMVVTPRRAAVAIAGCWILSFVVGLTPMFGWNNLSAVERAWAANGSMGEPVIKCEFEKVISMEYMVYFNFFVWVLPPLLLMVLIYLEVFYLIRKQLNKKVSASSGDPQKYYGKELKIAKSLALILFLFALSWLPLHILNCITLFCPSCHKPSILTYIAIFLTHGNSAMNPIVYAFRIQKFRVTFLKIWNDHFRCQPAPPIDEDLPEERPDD
Method: as §1, §2

[3] = target: T3, human adenosine 3 receptor (Homo sapiens, UniProt P0DMS8); assay: Agonist activity at adenosine 3 receptor, CHO cells with CRE-SPAP reporter (forskolin-enhanced cAMP); conditions: CHO cells transfected with human A3 receptor; effect on forskolin-enhanced cAMP via SPAP; ratio to NECA; minimum values (about 20% inactive impurity)
T3 construct: expressed in transfected cells; host or cells: Chinese hamster ovary (CHO) cells, also transfected with a CRE-SPAP reporter
T3 sequence (P0DMS8 1-318): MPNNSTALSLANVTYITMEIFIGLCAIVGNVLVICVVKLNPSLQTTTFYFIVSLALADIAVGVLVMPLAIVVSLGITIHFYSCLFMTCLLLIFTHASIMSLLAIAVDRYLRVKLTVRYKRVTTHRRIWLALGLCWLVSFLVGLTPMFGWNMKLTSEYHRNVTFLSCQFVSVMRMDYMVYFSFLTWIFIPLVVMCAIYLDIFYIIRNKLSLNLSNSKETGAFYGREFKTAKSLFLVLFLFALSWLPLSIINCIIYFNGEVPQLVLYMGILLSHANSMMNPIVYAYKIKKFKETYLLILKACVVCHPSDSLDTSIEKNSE
Method: as §1, §2

T1 sequence (P29274 whole entry): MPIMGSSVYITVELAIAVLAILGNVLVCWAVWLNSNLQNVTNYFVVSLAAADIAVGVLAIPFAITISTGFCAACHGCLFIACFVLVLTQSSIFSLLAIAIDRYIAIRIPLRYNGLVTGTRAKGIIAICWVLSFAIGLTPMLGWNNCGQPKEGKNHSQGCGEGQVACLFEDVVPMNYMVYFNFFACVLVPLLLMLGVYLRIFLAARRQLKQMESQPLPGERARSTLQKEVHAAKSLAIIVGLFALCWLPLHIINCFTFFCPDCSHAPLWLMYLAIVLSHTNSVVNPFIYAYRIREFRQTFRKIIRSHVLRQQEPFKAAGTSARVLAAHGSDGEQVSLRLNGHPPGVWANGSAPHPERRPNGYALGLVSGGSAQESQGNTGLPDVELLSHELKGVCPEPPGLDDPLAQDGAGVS

Question: With `CC(=O)OCCn1nnc(C2OC(n3cnc4c(NCC(c5ccccc5)c5ccccc5)nc(NCCN5CCCCC5)nc43)C(O)C2O)n1` (stereo not drawn) [Example 3, Acetic acid 2-(5-{5R-[6-(2,2-diphenyl-ethylamino)-2-(2-piperidin-1-yl-ethylamino)-purin-9-yl]-3S,4R-dihydroxy-tetrahydro-furan-2R -yl}-tetrazol-2-yl)-ethyl ester bis(trifluoroacetate)] as the compound, how does the “A2a EC50 as a ratio of that of NECA” value [1] read?
Answer: 16.59

Question: What about the “A1 EC50 as a ratio of that of NECA” value [2] of the same compound?
Answer: 310.5

Question: What about the “A3 EC50 as a ratio of that of NECA” value [3] of the same compound?
Answer: >93

Question: How did the “A2a EC50 as a ratio of that of NECA” value [1] turn out when `O=C(O)C(F)(F)F.O=C(O)C(F)(F)F.O[C@@H]1[C@H](O)[C@@H](c2nnn(C3CCC3)n2)O[C@H]1n1cnc2c(NCC(c3ccccc3)c3ccccc3)nc(NCCN3CCCCC3)nc21` [Example 7] was run?
Answer: 22.98

Question: And the “A1 EC50 as a ratio of that of NECA” value [2]?
Answer: 597.82

Question: And the “A3 EC50 as a ratio of that of NECA” value [3]?
Answer: >95

Question: Which results are given for `C=CCn1nnc(C2OC(n3cnc4c(NCC(c5ccccc5)c5ccccc5)nc(NCCN5CCCCC5)nc43)C(O)C2O)n1` [Example 8, (2R,3S,4R,5R)-2-(2-Allyl 2H-tetrazol-5-[6-(2,2-diphenyl-ethylamino)-2-(2-piperidin-1-yl-ethylamino)-purin-9-yl]-tetrahydro-furan-3,4-diolbis(trifluoroacetate)]?
Answer: A2a EC50 as a ratio of that of NECA [1]: 26.38; A1 EC50 as a ratio of that of NECA [2]: >6131; A3 EC50 as a ratio of that of NECA [3]: >165

Question: Which results are given for `O=C(O)C(F)(F)F.O=C(O)C(F)(F)F.O[C@@H]1[C@H](O)[C@@H](c2nnn(CC3CC3)n2)O[C@H]1n1cnc2c(NCC(c3ccccc3)c3ccccc3)nc(NCCN3CCCCC3)nc21` [Example 4]?
Answer: A2a EC50 as a ratio of that of NECA [1]: 37.24; A1 EC50 as a ratio of that of NECA [2]: 1318.09; A3 EC50 as a ratio of that of NECA [3]: >93

Question: What does the source list for `O=C(O)C(F)(F)F.O=C(O)C(F)(F)F.O[C@@H]1[C@H](O)[C@@H](c2nnn(CCCl)n2)O[C@H]1n1cnc2c(NCC(c3ccccc3)c3ccccc3)nc(NCCN3CCCCC3)nc21` [Example 6]?
Answer: A2a EC50 as a ratio of that of NECA [1]: 24.05; A1 EC50 as a ratio of that of NECA [2]: 411.9; A3 EC50 as a ratio of that of NECA [3]: >97

Question: For `OCCCn1nnc(C2OC(n3cnc4c(NCC(c5ccccc5)c5ccccc5)nc(NCCN5CCCCC5)nc43)C(O)C2O)n1` [Example 1, 2R,3R,4S,5R)-2-[6-(2,2-Diphenyl-ethylamino)-2-(2-piperidin-1-yl-ethylamino)-purin-9-yl]-5-[2-(3-hydroxy-propyl)-2H-tetrazol-5-yl]-tetrahydro-furan-3,4-diol bis(trifluoroacetate)], which “A2a EC50 as a ratio of that of NECA” value [1] is on record?
Answer: 22.64

Question: And the “A1 EC50 as a ratio of that of NECA” value [2]?
Answer: 434.8

Question: What about the “A3 EC50 as a ratio of that of NECA” value [3] of the same compound?
Answer: >93

Question: What does the source list for `OCCn1nnc(C2OC(n3cnc4c(NCC(c5ccccc5)c5ccccc5)nc(NCCN5CCCCC5)nc43)C(O)C2O)n1` [Example 5, (2R,3R,4S,5R)-2-[6-(2,2-Diphenyl-ethylamino)-2-(2-piperidin-1-yl-ethylamino)-purin-9-yl]-5-[2-(2-hydroxy-ethyl)-2H-tetrazo-5-yl]-tetrahydro-furan-3,4-diol bis(trifluoroacetate)]?
Answer: A2a EC50 as a ratio of that of NECA [1]: 10.54; A1 EC50 as a ratio of that of NECA [2]: 159.5; A3 EC50 as a ratio of that of NECA [3]: >94

Question: For `CCCn1nnc(C2OC(n3cnc4c(NCC(c5ccccc5)c5ccccc5)nc(NCCN5CCCCC5)nc43)C(O)C2O)n1` [Example 2, 2R,3R,4S,5R)-2-[6-(2,2-Diphenyl-ethylamino)-2-(2-piperidin-1-yl-ethylamino)-purin-9-yl]-5-(2-propyl-2H-tetrazo-5-tetrahydro-furan-3,4-diol bis(trifluoroacetate)], which “A2a EC50 as a ratio of that of NECA” value [1] is on record?
Answer: 30.95

Question: What about the “A1 EC50 as a ratio of that of NECA” value [2] of the same compound?
Answer: 755.4

Question: What about the “A3 EC50 as a ratio of that of NECA” value [3] of the same compound?
Answer: >93
